One assay addresses T1, FAAH (Homo sapiens, UniProt O00519).
T1 sequence (O00519 1-579): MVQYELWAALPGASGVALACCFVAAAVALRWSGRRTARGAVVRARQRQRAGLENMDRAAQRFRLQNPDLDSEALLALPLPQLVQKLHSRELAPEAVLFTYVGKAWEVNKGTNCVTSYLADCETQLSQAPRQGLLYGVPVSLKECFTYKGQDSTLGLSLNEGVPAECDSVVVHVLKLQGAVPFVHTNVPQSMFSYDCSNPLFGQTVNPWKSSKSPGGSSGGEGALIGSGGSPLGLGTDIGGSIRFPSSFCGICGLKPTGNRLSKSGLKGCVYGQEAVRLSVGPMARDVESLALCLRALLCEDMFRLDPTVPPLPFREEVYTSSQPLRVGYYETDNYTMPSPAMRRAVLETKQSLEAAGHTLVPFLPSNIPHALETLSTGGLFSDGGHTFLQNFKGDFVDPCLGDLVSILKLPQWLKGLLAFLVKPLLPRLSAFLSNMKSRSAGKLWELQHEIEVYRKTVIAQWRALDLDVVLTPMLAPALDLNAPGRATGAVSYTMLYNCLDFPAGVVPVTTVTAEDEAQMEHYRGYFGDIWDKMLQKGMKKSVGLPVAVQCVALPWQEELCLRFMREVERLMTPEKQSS
The assay can be described thus: Assay Method 1: FAAH assay, 3H-anandamide hydrolysis in cell homogenate. In kind it is biochemical. The arrangement: expressed in transfected cells. The conditions noted are these: T84 or transfected SK-N-MC cell homogenate, 80 nM 3H-AEA, 1 h rt, > = solubility limit or highest concentration tested. The method, then:
A. Transfection of Cells with Human FAAH
(§1) A 10-cm tissue culture dish with a confluent monolayer of SK-N-MC cells was split 2 days (d) prior to transfection. Using sterile technique, the media was removed and the cells were detached from the dish by the addition of trypsin. One fifth of the cells were then placed onto a new 10-cm dish. Cells were grown in a 37° C. incubator with 5% CO2 in Minimal Essential Media Eagle with 10% Fetal Bovine Serum. After 2 d, cells were approximately 80% confluent. These cells were removed from the dish with trypsin and pelleted in a clinical centrifuge. The pellet was re-suspended in 400 μL complete media and transferred to an electroporation cuvette with a 0.4 cm gap between the electrodes. Supercoiled human FAAH cDNA (1 μg) was added to the cells and mixed. The voltage for the electroporation was set at 0.25 kV, and the capacitance was set at 960 μF. After electroporation, the cells were diluted into complete media (10 mL) and plated onto four 10-cm dishes. Because of the variability in the efficiency of electroporation, four different concentrations of cells were plated. The ratios used were 1:20, 1:10, and 1:5, with the remainder of the cells being added to the fourth dish. The cells were allowed to recover for 24 h before adding the selection media (complete media with 600 μg/mL G418). After 10 d, dishes were analyzed for surviving colonies of cells. Dishes with well-isolated colonies were used. Cells from individual colonies were isolated and tested.
(§2) The assay mixture consisted of 50 μL of the cell homogenate, 10 μL of the test compound, and 40 μL of anandamide [1-^3H-ethanolamine] (^3H-AEA, Perkin-Elmer, 10.3 Ci/mmol), which was added last, for a final tracer concentration of 80 nM. The reaction mixture was incubated at rt for 1 h. During the incubation, 96-well Multiscreen filter plates (catalog number MAFCNOB50; Millipore, Bedford, Mass., USA) were loaded with 25 μL of activated charcoal (Multiscreen column loader, catalog number MACL09625, Millipore) and washed once with 100 μL of MeOH. Also during the incubation, 96-well DYNEX MicroLite plates (catalog number NL510410) were loaded with 100 μL of MicroScint40 (catalog number 6013641, Packard Bioscience, Meriden, Conn., USA). After the 1 h incubation, 60 μL of the reaction mixture were transferred to the charcoal plates, which were then assembled on top of the DYNEX plates using Centrifuge Alignment Frames (catalog number MACF09604, Millipore). The unbound labeled ethanolamine was centrifuged through to the bottom plate (5 min at 2000 rpm), which was preloaded with the scintillant, as described above. The plates were sealed and left at rt for 1 h before counting on a Hewlett Packard TopCount.
(§3) Where activity is shown as greater than (>) a particular value, the value is the solubility limit of the compound in the assay medium or the highest concentration tested in the assay.

In the next assay the target is T2, Rat FAAH (Rattus norvegicus, UniProt P97612).
T2 construct: expressed in transfected cells
T2 sequence (P97612 1-579): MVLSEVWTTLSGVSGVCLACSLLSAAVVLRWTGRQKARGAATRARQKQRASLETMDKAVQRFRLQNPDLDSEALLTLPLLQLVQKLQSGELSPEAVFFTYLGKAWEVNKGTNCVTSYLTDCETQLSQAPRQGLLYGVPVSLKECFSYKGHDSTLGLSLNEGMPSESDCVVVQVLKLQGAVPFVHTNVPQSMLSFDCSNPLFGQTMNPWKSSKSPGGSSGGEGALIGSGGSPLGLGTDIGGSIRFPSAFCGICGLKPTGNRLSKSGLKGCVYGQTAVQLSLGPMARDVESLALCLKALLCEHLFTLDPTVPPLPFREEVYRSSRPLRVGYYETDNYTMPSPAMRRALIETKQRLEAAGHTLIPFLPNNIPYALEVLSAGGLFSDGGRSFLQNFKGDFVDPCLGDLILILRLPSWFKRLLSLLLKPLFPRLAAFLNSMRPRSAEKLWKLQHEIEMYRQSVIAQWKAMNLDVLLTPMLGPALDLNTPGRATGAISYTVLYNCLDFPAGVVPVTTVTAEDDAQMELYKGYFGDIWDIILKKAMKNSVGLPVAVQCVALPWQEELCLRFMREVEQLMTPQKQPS
The assay can be described thus: Assay Method 2: FAAH assay, 3H-anandamide hydrolysis in cell homogenate. Type of assay: biochemical. As to conditions: transfected SK-N-MC cell homogenate, 80 nM 3H-AEA, 1 h rt, > = solubility limit or highest concentration tested. The method, then:
A. Transfection of Cells with Rat FAAH
as §1, with “rat” for “human”
as §2, with “incubated at […] for 1” for “incubated at rt for 1”, “labeled ethanolamine . was centrifuged” for “labeled ethanolamine was centrifuged”
as §3

A word on the IC50: it is the concentration needed to halve the response being measured. A low value points to higher potency. Turning to `O=C(c1ncco1)C1CCN(Cc2ccc(Cl)nc2)CC1` [Example 82, [1-(6-Chloro-pyridin-3-ylmethyl)-piperidin-4-yl]-oxazol-2-yl-methanone], the IC50 against FAAH was found to be 125 nM; against Rat FAAH it was 0.65 µM.

For the compound `O=C(c1ncco1)C1CCN(Cc2cccnc2)CC1` [Example 59, Oxazol-2-yl-(1-pyridin-3-ylmethyl-piperidin-4-yl)-methanone], the IC50 against Rat FAAH is more than 10 µM.

Regarding `CC(C)COc1cccc(CN2CCC(C(=O)c3ncco3)CC2)c1` [Example 16, [1-(3-Isobutoxy-benzyl)-piperidin-4-yl]-oxazol-2-yl-methanone], the IC50 at FAAH was 31 nM; against Rat FAAH, 0.975 µM.

For the compound `O=C(c1ncco1)C1CCN(Cc2cc3cc4c(cc3nc2Cl)OCO4)CC1` [Example 67, [1-(6-Chloro-[1,3]dioxolo[4,5-g]quinolin-7-ylmethyl)-piperidin-4-yl]-oxazol-2-yl-methanone], the results for the IC50 against FAAH and at Rat FAAH were 745 nM and more than 10 µM, respectively.

As for `O=C(c1ncco1)C1CCN(C(=O)c2ccccc2Cl)CC1` [Example 13, [1-(2-Chloro-benzoyl)-piperidin-4-yl]-oxazol-2-yl-methanone], the IC50 at Rat FAAH is more than 10 µM.

Turning to `O=C(c1ncco1)C1CCN(Cc2ccccc2F)CC1` [Example 32, [1-(2-Fluoro-benzyl)-piperidin-4-yl]-oxazol-2-yl-methanone], the IC50 against FAAH was 1500 nM; at Rat FAAH, more than 10 µM.

Turning to `O=C(c1ncco1)C1CCN(Cc2ccc3ccccc3c2)CC1` [Example 88, (1-Naphthalen-2-ylmethyl-piperidin-4-yl)-oxazol-2-yl-methanone], the IC50 was found to be 4 nM on FAAH and 0.009 µM at Rat FAAH.

Take `O=C(c1ncco1)C1CCN(C(=O)c2ccc(Cl)cc2)CC1` [Example 11, [1-(4-Chloro-benzoyl)-piperidin-4-yl]-oxazol-2-yl-methanone]: the IC50 was 2150 nM on FAAH and 7.5 µM against Rat FAAH.

On FAAH, `CN(C)c1ccc(CN2CCC(C(=O)c3ncco3)CC2)cc1` [Example 20, [1-(4-Dimethylamino-benzyl)-piperidin-4-yl]-oxazol-2-yl-methanone] yielded an IC50 of 200 nM.

Regarding `COc1cccc(C(=O)N2CCC(C(=O)c3ncco3)CC2)c1` [Example 7, [1-(3-Methoxy-benzoyl)-piperidin-4-yl]-oxazol-2-yl-methanone], the IC50 at Rat FAAH is more than 10 µM.

With `CCOc1ccc(CN2CCC(C(=O)c3ncco3)CC2)cc1` [Example 28, [1-(4-Ethoxy-benzyl)-piperidin-4-yl]-oxazol-2-yl-methanone], the IC50 against FAAH is 772 nM.

`CC(C)COc1ccc(CN2CCC(C(=O)c3ncco3)CC2)cc1` [Example 17, [1-(4-Isobutoxy-benzyl)-piperidin-4-yl]-oxazol-2-yl-methanone] displayed an IC50 on FAAH of 180 nM.

`O=C(c1ncco1)C1CCN(Cc2ccc(OC3CCCCC3)cc2)CC1` [Example 21, [1-(4-Cyclohexyloxy-benzyl)-piperidin-4-yl]-oxazol-2-yl-methanone] registered an IC50 on FAAH of 750 nM.

In turn, `O=C(c1ncco1)C1CCN(Cc2ccncc2)CC1` [Example 58, Oxazol-2-yl-(1-pyridin-4-ylmethyl-piperidin-4-yl)-methanone] came in with an IC50 at Rat FAAH of more than 10 µM.

Regarding `COc1ccc(S(=O)(=O)N2CCC(C(=O)c3ncco3)CC2)cc1` [Example 2, [1-(4-Methoxy-benzenesulfonyl)-piperidin-4-yl]-oxazol-2-yl-methanone], the IC50 against Rat FAAH was more than 10 µM.

Compound `CC(C)Oc1cccc(CN2CCC(C(=O)c3ncco3)CC2)c1` [Example 24, [1-(3-Isopropoxy-benzyl)-piperidin-4-yl]-oxazol-2-yl-methanone] registered an IC50 against FAAH of 118 nM.

Consider `O=C(c1ncco1)C1CCN(C(=O)c2cccc(Cl)c2)CC1` [Example 12, [1-(3-Chloro-benzoyl)-piperidin-4-yl]-oxazol-2-yl-methanone], for which the IC50 against FAAH came to 9000 nM.

Turning to `COc1cccc(S(=O)(=O)N2CCC(C(=O)c3ncco3)CC2)c1` [Example 3, [1-(3-Methoxy-benzenesulfonyl)-piperidin-4-yl]-oxazol-2-yl-methanone], the IC50 on FAAH was 8000 nM. This IC50 and that of the compound before are within 1.5-fold of each other.

For the compound `CC(c1ccccc1)N1CCC(C(=O)c2ncco2)CC1` (centres unmarked) [Example 90, Oxazol-2-yl-[1-(1-phenyl-ethyl)-piperidin-4-yl]-methanone], the IC50 against Rat FAAH was more than 10 µM.

At FAAH, `O=C(c1ncco1)C1CCN(S(=O)(=O)c2ccccc2Cl)CC1` [Example 6, [1-(2-Chloro-benzenesulfonyl)-piperidin-4-yl]-oxazol-2-yl-methanone] yielded an IC50 of 5000 nM.

The values are drawn from patent US20100292266A1, “Oxazolyl Piperidine Modulators of Fatty Acid Amide Hydrolase” (priority 2006, published 2010).
